Values after ≈ are worked out from the molar mass of the structure shown. Read-outs that look alike come from different tables or passages of the source.

For data set [1], the system named is MCCC 1A01390 Pseudomonas pachastrellae. The experiment in a line: Biofilm inhibition assay (MTT), marine bacteria. In kind it is cell-based. The conditions noted are these: lowest concentration inhibiting 90% of biofilm formation; 24 h. The method, then:
(§1) The ability of the bacteria to form static biofilms was tested. Marine bacteria were cultured overnight in marine broth at 22° C. with 220 rpm agitation (Pseudomonas pachastrellae MCCC 1A01390, Sulfitobacter pontiacus MCCC 1A04899 and Psychrobacter nivimaris MCCC 1A 11723) and at 30° C. (Staphylococcus aureus B04, Staphylococcus sp. Z01 and Micrococcus sp. Z02) and then diluted to 10^7 CFU mL^−1 in marine broth supplemented with 1% of glucose; pathogenic bacteria was cultured overnight in LB broth with 1% glucose with 220 rpm at 37° C. Afterwards, 200 μL of the diluted solution were added to each well of a 96-well plate (Corning Inc., New York, USA) and was then incubated at 22° C. or 30° C. for 24 h. The culture medium, planktonic cells and loosely adhered bacteria were removed by dual washing with a phosphate-buffered saline (PBS) buffer, and the firmly attached bacteria were incubated with 20 μL of MTT (5 mg mL^−1) at 37° C. for 3 h. The supernatant was discarded, and formazan was dissolved in 150 μL of DMSO. Absorbance was measured using the Multiskan™ FC microplate photometer (Thermo Fisher Scientific, Waltham, USA) under 570 nm, and MRSA ATCC 43300 was used as a positive control. All the experiments were performed in triplicate.
(§2) The antibacterial activities of albofungins were tested following specific protocols (She et al., 2020). Marine broth was used as the test medium for the marine bacteria, and the MHB broth was used as the test medium for the pathogenic bacteria. The plate was kept at 22° C. or 30° C. overnight, and the minimum inhibitory concentration (MIC) is the lowest concentration that the drug prevents the visible growth of bacteria. The bacteria which have successfully formed biofilms were further used for antibiofilm formation assays. Different concentrations of albofungin compounds were added to each well. Biofilm formation was assessed through the MTT assay as previously described. […] Data were analyzed using one-way ANOVA to detect significant differences and standard deviation (SD) was calculated using GraphPad Prism 9. All the assays were performed in triplicate.

The test system of data set [2] is MCCC 1A04899 Sulfitobacter pontiacus. The experiment in a line: Biofilm inhibition assay (MTT), marine bacteria. Type of data set: cell-based. The conditions noted are these: lowest concentration inhibiting 90% of biofilm formation; 24 h. As for the experimental part: as §1, §2
For data set [3], the system named is MCCC 1A11723 Psychrobacter nivimaris. The experiment in a line: Biofilm inhibition assay (MTT), marine bacteria. Type of data set: cell-based. The conditions noted are these: lowest concentration inhibiting 90% of biofilm formation; 24 h. The method, then: as §1, §2
Data set [4] concerns Micrococcus sp. Z02. Nature of the data set: Biofilm inhibition assay (MTT), marine bacteria. Type of data set: cell-based. The conditions noted are these: lowest concentration inhibiting 90% of biofilm formation; 24 h. The method, then:
as §1, §2

Data set [5] deals with Staphylococcus aureus 04. Nature of the data set: Biofilm inhibition assay (MTT), marine bacteria. To be noted: lowest concentration inhibiting 90% of biofilm formation; 24 h. In kind it is cell-based. The method, then:
as §1, §2

The subject of data set [6] is Staphylococcus sp. Z01. The experiment in a line: Biofilm inhibition assay (MTT), marine bacteria. Type of data set: cell-based. To be noted: lowest concentration inhibiting 90% of biofilm formation; 24 h. As for the experimental part: as §1, §2
Data set [7] has as its system MCCC 1A01390 Pseudomonas pachastrellae. Nature of the data set: Bacterial growth inhibition (antibacterial assay, MIC). Type of data set: cell-based. The conditions noted are these: Halopseudomonas pachastrellae; marine broth, overnight. As for the experimental part: as §2
The subject of data set [8] is MCCC 1A04899 Sulfitobacter pontiacus. The data set is described as above. In kind it is cell-based. The method, then:
as §2

Data set [9] concerns MCCC 1A11723 Psychrobacter nivimaris. The description is as above. In kind it is cell-based. The conditions noted are these: marine broth, overnight. The method, then:
as §2

The test system of data set [10] is Micrococcus sp. Z02. The description is as above. Type of data set: cell-based. The conditions noted are these: marine broth, overnight. The method, then: as §2
The subject of data set [11] is Staphylococcus aureus 04. The description is as above. To be noted: marine broth, overnight. Type of data set: cell-based. The method, then:
as §2

In data set [12] the test system is Staphylococcus sp. Z01. Described as above. Type of data set: cell-based. The conditions noted are these: marine broth, overnight. The method, then:
as §2

Data set [13] is described as follows: Anti-larval settlement bioassay, barnacle. In kind it is in vivo, Amphibalanus amphitrite. The conditions noted are these: Amphibalanus amphitrite (barnacle), cyprid larvae, in vivo; larval mortality, 48 h at 25° C. The method, then:
(§3) A. amphitrite adults were collected from Pak Sha Wan Pier, Hong Kong (22° 38′N, 114° 28′E) and after keeping in the dark for 24 h, a light source was used to stimulate the larval release. Within 1 h, the larvae were collected and cultured in 0.22 μm filtered seawater with a daily diet of Chaetoceros gracilis Schutt at 1×10^6 cells mL^−1 until their growth into cyprids, which were used for the anti-larval settlement bioassay. The bryozoan B. neritina adults were collected from a fish farm in Pak Shek Kok, Hong Kong (22° 43′N, 114° 20′E) and kept in flow-through seawater for no more than 7 days before use. The larvae were released within 30 minutes before the bioassay as described (Xu et al., 2010). The bioassay was conducted in a 24-well polystyrene tissue culture plate with 15-20 larvae in each well. 0.1% of DMSO in filtered seawater (FSW), and 0.625, 1.25, 2.5, 5, 10, 20, and 40 μg mL^−1 albofungin concentrations were tested in triplicate. In each well, 1 mL of FSW containing 15-20 larvae and 1 mL of albofungin solution of different concentrations. The plate was kept for 48 h at 25° C. (bryozoan B. neritina larvae were kept for 3 h). The wells with 0.1% of DMSO in FSW served as a negative control, and butenolide was used as a positive control. The number of attached, swimming, and dead larvae were counted under an Olympus optical microscope (Olympus Corporation, Tokyo, Japan). The settlement rate was calculated as the ratio of settled larvae to the total number of larvae in each well, and the death rate was calculated as the ratio of dead or missing larvae to the total number of larvae in each well. Half maximal effective concentration (EC50) and half lethal concentration (LC50) were determined for each compound, and the ratio of LC50/EC50 was used to evaluate the toxicity of the antifoulant. Experiments were performed in triplicate. Data were analyzed by one-way ANOVA to detect significant differences in the larval settlement, and SD was calculated by GraphPad Prism 9.

Data set [14] concerns barnacle Amphibalanus amphitrite larvae. Nature of the data set: Anti-larval settlement bioassay, barnacle. Type of data set: in vivo. To be noted: for EC50: Amphibalanus amphitrite; for settlement rate compared with control group (0.1% DMSO in FSW): after 48 h of incubation. The method, then: as §3
In the next data set the test system is MRSA ATCC 43300. The experiment in a line: Biofilm inhibition assay (MTT), pathogenic bacteria. To be noted: lowest concentration inhibiting 90% of biofilm formation. Type of data set: cell-based, Staphylococcus aureus. The method, then:
as §1
as §2, with “All the assays were performed in triplicate.” left out

Data set [15] concerns Acinetobacter baumannii B-65371. The data set is described as above. In kind it is cell-based. The conditions noted are these: lowest concentration inhibiting 90% of biofilm formation. The method, then: as §1, §2
In data set [16] the test system is Enterobacter cloacae NRRL-B-425. Described as above. Type of data set: cell-based. The conditions noted are these: lowest concentration inhibiting 90% of biofilm formation. As for the experimental part: as §1, §2
The subject of the next data set is Escherichia coli k12. The description is as above. Type of data set: cell-based. To be noted: lowest concentration inhibiting 90% of biofilm formation. The method, then: as §1, §2
Setting [17] is: larval settlement, 48 h at 25° C., read-out: EC50.

With `CO[C@@H]1CC[C@H](O)c2c1oc1c3c4c(c(O)c1c2=O)-c1c(cc2c(Cl)c(C)n(N)c(=O)c2c1O)C[C@H]4OCO3` [Chloroalbofungin (3), chloroalbofungin], the MBIC90 was more than 20 µg/mL in [1]; 10 to 20 µg/mL in [2]; more than 20 µg/mL in data set [3]; 250 to 500 ng/mL in the data set with Micrococcus sp. Z02 [4]; 250 to 500 ng/mL with Staphylococcus aureus 04 [5]; 100 to 200 ng/mL with Staphylococcus sp. Z01 [6]. In addition, the minimal inhibitory concentration (MIC) was more than 20 µg/mL in data set [7]; more than 20 µg/mL in data set [8]; more than 20 µg/mL in data set [9]; 0.05 µg/mL (≈ 0.0901 µM) in the data set on Micrococcus sp. Z02 [10]; 0.0125 µg/mL (≈ 0.0225 µM) in the data set on Staphylococcus aureus 04 [11]; 0.0016 µg/mL (≈ 0.00288 µM) in the data set with Staphylococcus sp. Z01 [12]. This compound yielded an LC50 at 48 h in data set [13] of more than 100 µg/mL. In addition, the concentration for a half-maximal effect (EC50) in data set [14] (setting [17]) was determined as 35 µg/mL (≈ 63.1 µM). In [14], the “settlement rate compared with control group (0.1% DMSO in FSW)” value (“settlement rate … (0.1% DMSO in FSW)” below) is on record as “did not cause significant difference”.
Take `CO[C@@H]1CC[C@H](O)c2c1oc1c3c4c(c(O)c1c2=O)-c1c(cc2cc(C)[nH]c(=O)c2c1O)C[C@H]4OCO3` [Chrestoxanthone A (4), chrestoxanthone A]: the MBIC90 in data set [1] is more than 20 µg/mL; in data set [2], 10 to 20 µg/mL; in data set [3], more than 20 µg/mL; with Micrococcus sp. Z02 [4], 125 to 250 ng/mL; in the data set with Staphylococcus aureus 04 [5] it was 62.5 to 125 ng/mL; with Staphylococcus sp. Z01 [6], 5 to 10 ng/mL. The figures for the MBIC90 (with MRSA ATCC 43300; in data set [15]; in [16]) were 0.13 to 0.25 µg/mL, 1.25 to 2.5 µg/mL and more than 10 µg/mL, respectively. Also, the minimal inhibitory concentration (MIC) in data set [7] was more than 20 µg/mL; in [8] (marine broth, overnight, read-out: MIC), 20 µg/mL (≈ 39.6 µM); in data set [9] it was more than 20 µg/mL; in the data set with Micrococcus sp. Z02 [10] it was 0.0125 µg/mL (≈ 0.0247 µM); in the data set on Staphylococcus aureus 04 [11], 0.0125 µg/mL (≈ 0.0247 µM); in the data set on Staphylococcus sp. Z01 [12], 0.0016 µg/mL (≈ 0.00317 µM). This compound also registered an LC50 at 48 h in data set [13] of more than 100 µg/mL. Also, the EC50 in data set [14] (setting [17]) was more than 36.8 µg/mL. The “settlement rate … (0.1% DMSO in FSW)” value in data set [14] is on record as “did not cause significant difference”.
In the case of `Cc1cc2cc3c(c(O)c2c(=O)n1N)-c1c2c(c4oc5c(c(=O)c4c1O)[C@@H](O)CC[C@H]5O)OCO[C@@H]2C3` [Albofungin A (2), albofungin A], the MBIC90 is 0.02 to 0.03 µg/mL in data set [1]; 0.02 to 0.03 µg/mL in data set [2]; more than 20 µg/mL in data set [3]; 62.5 to 125 ng/mL with Micrococcus sp. Z02 [4]; 15.63 to 31.25 ng/mL in the data set with Staphylococcus aureus 04 [5]; 0.63 to 1.25 ng/mL in the data set with Staphylococcus sp. Z01 [6]. The MBIC90 in the data set on MRSA ATCC 43300 lay in the range of 0.01 to 0.03 µg/mL; in data set [15], 0.13 to 0.25 µg/mL; in [16], 0.63 to 1.25 µg/mL; in the data set on Escherichia coli k12, 0.31 to 0.63 µg/mL. Further, the minimal inhibitory concentration (MIC) in data set [7] was 0.12 µg/mL (≈ 0.237 µM); in data set [8], 0.008 µg/mL (≈ 0.0158 µM); in [9], more than 20 µg/mL; in the data set with Micrococcus sp. Z02 [10], 0.0064 µg/mL (≈ 0.0126 µM); against Staphylococcus aureus 04 [11], 0.0064 µg/mL (≈ 0.0126 µM); against Staphylococcus sp. Z01 [12], 0.0008 µg/mL (≈ 0.00158 µM). This compound also came in with an LC50 at 48 h in data set [13] of more than 100 µg/mL. Moreover, the larval settlement rate in [14] (20 μg mL^−1, 48 h) is given as 17% (±12.7%). The same compound displayed an EC50 in [14] (48 h) of 12.2 µg/mL (≈ 24.1 µM). Further, the “settlement rate … (0.1% DMSO in FSW)” value in data set [14] is reported as “significantly lower”. The LC50/EC50 in [14] (ratio used to evaluate toxicity of the antifoulant) stood at 8.2.

The record behind these values is patent US12410323B2, “Potent antifouling agents albofungins target multiple fouling organisms” (The Hong Kong University of Science and Technology, priority 2021, dated 2025).
